Measured values as given in ChEMBL document CHEMBL1806489, “Synthesis and biological evaluation of novel F-18 labeled pyrazolo[1,5-a]pyrimidine derivatives: potential PET imaging agents for tumor detection” (Bioorg Med Chem Lett, 2011).

Legend:
Format in all cases: ADME, cell-based
[1] = tested on: CCRF S-180; assay: Cellular uptake in mouse S180 cells relative to [18F]FDG
[2] = tested on: CCRF S-180; assay: Cellular uptake in mouse S180 cells after 60 mins; settings: ccrf s-180, 1 h
[3] = tested on: CCRF S-180; assay: Cellular uptake in mouse S180 cells after 30 mins; settings: ccrf s-180, 0.5 h

Row | Drug uptake [1] [%] | Drug uptake [2] [%] | Drug uptake [3] | Structure (SMILES)
1 | < 7 | 9 |  | N[C@@H](Cc1ccc(OCC[18F])cc1)C(=O)O [FLORETYROSINE F18]
2 |  | 9 | Active | O=C[C@H]([18F])[C@@H](O)[C@H](O)[C@H](O)CO
